Source: patent US8426463B2, “[((1R,2S,5R)-2-isopropyl-5-methyl-cyclohexanecarbonyl)-amino]-acetic acid isopropyl ester and related compounds and their use in therapy” (priority 2011, dated 2013)

Key:
[1] = system: dorsal surface of the tongue; conditions: 6 subjects; filter paper on dorsal surface of tongue, 30 seconds; cited from earlier work
[2] = system: ocular surface (non-keratinized stratified epithelium); experiment: Ocular surface bioassay: duration of cooling after towelette wipe on closed eyelids; type: in vivo, human; conditions: for Non-Keratinized Stratified Epithelia (NKSE) Ocular Surface (min), duration of cooling: applied to the closed eyelids using a towellette at 1 mg/mL in 5%-95% v/v ethanol-distilled water; for rank order of duration of action of ocular wipes: six subjects, randomized double-blind study, three trials per wipe
Procedure: Bioassay on Non-Keratinized Stratified Epithelium: Ocular Surface
For testing on the ocular surface, a towelette containing the test compound was used as the delivery unit. The test compound was dissolved first in absolute ethanol and then distilled water was added to form a standard 1 mg/mL solution in a 3 to 5% by weight ethanol-water solution. Three mL of the test solution was then added to a 0.4 g cotton rectangle (50 mm×60 mm) (CS-being, Daisan Cotton, Japan) and individually sealed with a vacuum apparatus (Foodsaver®, Jarden Corp.). Samples were stored in a freezer or refrigerator and thawed to room temperature before use. Wiping with the cotton pad delivers 40 to 45 μL of liquid composition to the closed eyelids (˜20 to 22 μL per eye surface). Thus, if the concentration of the test compound was 1 mg/mL, the dose delivered to both eyes is a total of ˜40 to 42 μg, or ˜20 μg per eye. The presence or absence of cooling sensations felt on the ocular surface was noted as being present or absent at 5 to 10 minute intervals until no coolness was noticeable in two successive test intervals. Only the duration of cooling on the ocular surface was recorded, without an attempt to quantify the intensity of the sensation.

[3] = system: oropharyngeal surface (non-keratinized stratified epithelium); experiment: Oropharyngeal surface bioassay: ODT followed by chili pepper sauce challenge; type: in vivo, human; design: key to Non-Keratinized Stratified Epithelia (NKSE) Oropharyngeal Surface, attenuation of chili pepper sauce irritation: If there was no attenuation of the challenge stimuli, the score was (0); if there was partial inhibition, the score was (+); if there was complete attenuation of the irritant signal, the score was (++); conditions: for sensation on the oropharyngeal surface / effect on the response to the chili pepper sauce: ODT; for Non-Keratinized Stratified Epithelia (NKSE) Oropharyngeal Surface, attenuation of chili pepper sauce irritation: ODT containing 2.5 to 3 mg of active ingredient, chili pepper sauce 45 minutes later; for effect on the response to the chili pepper sauce: same test conditions
Text: Bioassay on Non-Keratinized Stratified Epithelium: Oropharyngeal Surface
A number of irritants have been evaluated for evoking the cough sensation as a measure of pharygeal sensitivity (see, e.g., Morice et al., 2001, “Cough Challenge in the Assessment of Cough Reflex”, Brit. J. Clin. Pharmacol., Vol. 52, pp. 365-375). Usually, citric acid or capsaicin is delivered via the inhalation route to volunteers and the number of coughs counted. […] The chili pepper sauce mixes with the saliva and the saliva is then deposited on the posterior oropharynx. The chili pepper sauce used was Yank Sing® Chili Pepper Sauce (YS Gourmet Productions, Inc., PO Box 26189, San Francisco, Calif. 94126) and is a well-known condiment for use with dim sum (Chinese tea lunch). The sensations associated with the chili pepper sauce are located in the posterior wall of the mouth and are clearly recognized by the test subject and associated with a desire to clear the throat.
The ODT was formulated by taking an ingredient, dissolving it in absolute ethanol, and then adding 10% by weight of maltitol, and 90% by weight of mannitol, and then an equal volume of distilled water. The mixture was the stirred with a glass rod, and dispensed onto a piece of wax paper with a disposable plastic pipette. The individual dried tablets weighed on average 150 mg each and when on the dorsal surface of the tongue, dissolved completely in saliva and coated the oropharyngeal surface. On average, the amount of the test substance was 2.5 to 3 mg per tablet.
To test for anti-nociceptive activity, the ODT containing the test compound was first administered onto the dorsal surface of the tongue; 45 to 50 minutes later, the chili-pepper sauce challenge is administered. At this time, the coolness sensations from the test compound have dissipated and the test is to determine if an anti-nociceptive effect remains. Results were reported as follow: If there was no attenuation of the challenge stimuli, the score was (0), if there was partial inhibition, the score was (+), and if there was complete attenuation of the irritant signal, the score was (++). In the presence of an ODT containing an active ingredient that results in a (++) score, the irritative signals were completely absent, yet the salty taste used in the soy sauce of the condiment could be readily identified and tasted.
In one formulation (used in the biological evaluation studies described herein), orally disintegrating tablets (ODTs) were prepared using an 80:20 by weight mixture of mannitol-maltitol (Pearlitol™ and Sweetpearl™, Roquette Freres, France). This carrier has the advantage of completely masking bitter tastes that might be present in some of the test compounds. The test compound was first mixed with the mannitol-maltitol using a mortar and pestle, and then suspended in an equal volume of 10:90 v/v ethanol-distilled water. A disposable pipette was then used to aliquot the liquid mixture onto a sheet of wax paper and dried at room temperature. The dried tablets were then weighed and sorted. It was found by experiment that an 80 mg tablet containing 2 to 3 mg of test compound dissolved within 15 seconds when placed on the dorsal surface of the tongue and provided a good test dose.

[4] = system: philtrum skin (keratinized stratified epithelium); experiment: Philtrum assay: duration of cooling on keratinized stratified epithelium; type: in vivo, human; conditions: applied to the philtrum skin at 5 mg/mL in Aquaphor ointment
Text: Bioassay on Keratinized Stratified Epithelium: Philtrum Assay
The philtrum is the midline groove above the border of the upper lip. The site of drug testing was the skin above the upper lip (above the vermilion border of the lips), on the philtrum, lateral to the philtrum until the nasolabial folds, and sometimes on the lower nostrils (subnasale). This part of the face is known to be densely innervated with cool/cold receptors, second only to the surfaces of the eyeball and anogenitalia. It is also known from the scientific literature that the area around the lips has a high density of “cold spots” (see, e.g., Dhaka et al., “Visualizing cold spots: TRPM8-expressing sensory neurons and their projections”, J. Neuroscience, Vol. 28, pp. 566-575, 2008).
To test for anti-nociceptive activity, the test substance is first dissolved (5 mg/mL) in an ointment (Aquaphor®, which is 41% petrolatum, and the rest mineral oil, ceresin and lanolin alcohol) and singly applied (40 to 70 mg) onto the philtrum skin surface using a plastic stick.
At this locus, cool and cold sensations in the skin may be experienced and rated for time of onset and intensity. The intensity of the subjective skin sensation is rated as 0, 1, 2 or 3 with: 0 as no change; 1 as slight coolness, or cold; 2 as clear-cut signal of coolness or cold; and 3 as robust cooling or cold. The intervals for recording are 5 to 10 minutes, until two successive zeroes are obtained. The onset of drug action is taken as the time to reach 2 units of coolness intensity, and offset of drug action is the time when coolness intensity drops below 2, after previously surpassing 2 units. The duration of cooling action is defined as the offset time minus the onset time.

TA1535 strain = conditions: MSDS Number 2984; cited from earlier work
allergic conjunctivitis = experiment: Study 3: eye wipes in a subject with allergic conjunctivitis; type: in vivo, human
Text: A laboratory scientist suffered from seasonal allergic conjunctivitis. This condition was severely aggravated when […] started doing experiments with laboratory animals (rats and mice) and […] became sensitized to the associated allergens. The conjunctivitis was not relieved by oral or topical eye drops containing antihistamines and the subject was reluctant to consider the use of anti-inflammatory steroid ointments. Upon examination, their eyes were blood-shot and watery and they kept rubbing their eyelids with their fingers even though they knew this action may further aggravate the itch and discomfort. They volunteered to try eye wipes containing 1.0 mg/mL of Gly-O-iPr. The relief of itch and discomfort was obtained within 5 minutes and lasted for at least four hours.

[5] = system: pharyngeal and esophageal receptors; experiment: Cooling sensations in the chest after Gly-O-iPr with or without icilin; design: species or system human; conditions: in vivo
Text: The cooling sensations in the chest that result from the Gly-O-iPr/icilin combination may provide symptomatic relief of discomfort in the airways (larynx, trachea, bronchi) in conditions such as asthma and COPD.

cough = experiment: Study 5: ODT in a smoker with chili pepper induced coughing fit; type: in vivo, human; conditions: two ODT tablets (2.5 mg each); one subject
Procedure: A venture capitalist lived a stress-filled life and smoked two packs of cigarettes per day. […] They tried the ODT containing 2.5 mg of Gly-O-iPr and said that it felt great, but they were afraid that if they used it, they would smoke more. Later that evening, they went to a banquet of Northern Chinese cuisine and they started coughing when they ate a piece of fish that was heavily spiced with chili peppers. Everyone at the dinner table was alarmed by their coughing fit which was quite intense and made their face turn bright red.

[6] = system: Salmonella typhimurium tester strain TA1535; experiment: Ames test in TA1535 with and without S9-mix (Notox)
[7] = system: dry, scratchy throat with cough; experiment: Study 4: chewing gum and ODT in a subject with scratchy throat and cough; type: in vivo, human
Text: A person's child moved away from their neighborhood to go to college and they became responsible for taking care of their two cats. Initially everything was all right, but then they became sensitized to the litter box dust generated when they were cleaning after the cats. They developed a dry, scratchy throat with cough, and this was severely aggravated by their seasonal allergy to grass pollen, so that they were constantly clearing their throat. […] After about two weeks of coughing and discomfort, they agreed to try Gly-O-iPr, first spread as 3 mg per wafer of Wrigley spearmint chewing gum, and then later formulated in an orally disintegrating tablet at 3 mg per unit dose. The medicated chewing gum and the ODT both provided relief within five minutes after administration. The sense of discomfort in the throat was attenuated and the effect lasted for about four hours and the dose could be repeated with the same beneficial effect. This individual preferred the ODT method of delivery as they considered this more efficient than chewing gum. After using the ODT containing Gly-O-iPr for ten days on an “as-needed basis” […] cough and scratchy throat disappeared and they are now well.

[8] = 3 mg per chewing gum wafer or 3 mg ODT, one subject

| SMILES | Non-Keratinized Stratified Epithelia (NKSE) Ocular Surface (min), duration of cooling [2] [min] | rank order of duration of action of ocular wipes [2] | sensation on the oropharyngeal surface [3] | Non-Keratinized Stratified Epithelia (NKSE) Oropharyngeal Surface, attenuation of chili pepper sauce irritation [3] | effect on the response to the chili pepper sauce [3] | Keratinized Stratified Epithelia Philtrum Skin (min), duration of cooling [4] [min] | further results |
| --- | --- | --- | --- | --- | --- | --- | --- |
| CC(C)[C@@H]1CC[C@@H](C)C[C@H]1O [(−)-menthol, (1R,2S,5R)-2-isopropyl-5-methyl-cyclohexanol] |  |  |  |  |  |  | average Threshold for cooling on the tongue [1]: 0.25 µg |
| CCOC(=O)CNC(=O)[C@@H]1C[C@H](C)CC[C@H]1C(C)C [Gly-O-Et, [((1R,2S,5R)-2-isopropyl-5-methyl-cyclohexanecarbonyl)-amino]-acetic acid ethyl ester] | 15 | Gly-O-iPr>>Gly-O-nPr>Gly-O-Et | refreshing cooling sensation | 0 | not effective | 24 | increase in duration of cooling on the ocular surface ([2]; concentration increased from 1 mg/mL to 2 mg/mL): 15 min; increase in duration of cooling on the ocular surface ([2]; concentration increased from 1 mg/mL to 5 mg/mL): 22 min; mutagenicity, Ames test (TA1535 strain): weakly mutagenic |
| COC(=O)CNC(=O)[C@@H]1C[C@H](C)CC[C@H]1C(C)C [Gly-O-Me, [((1R,2S,5R)-2-isopropyl-5-methyl-cyclohexanecarbonyl)-amino]-acetic acid methyl ester] | 5 |  |  | 0 |  | 10 |  |
| CC(C)OC(=O)CNC(=O)[C@@H]1C[C@H](C)CC[C@H]1C(C)C [Gly-O-iPr, [((1R,2S,5R)-2-isopropyl-5-methyl-cyclohexanecarbonyl)-amino]-acetic acid isopropyl ester] | 300 | Gly-O-iPr>>Gly-O-nPr>Gly-O-Et | refreshing cooling sensation | ++ | blocked the response to the chili pepper sauce | 27 | time to relief of itch and discomfort (allergic conjunctivitis; eye wipes containing 1.0 mg/mL, one subject): ≤ 5 min; over-all itchiness and redness (allergic conjunctivitis; wipes as needed for three days): reduced significantly; cooling sensations in the chest [5]: less effective; duration of cooling effect on the ocular surface, on average ([2]; 1 mg/mL): 5 h; duration of cooling on the ocular surface ([2]; test concentration increased to 1.5 mg/mL): about 6.5 hours; effect on coughing fit (cough): the cough stopped within a few minutes; mutagenic activity, conclusion ([6]; TA1535, 3 to 5000 μg/plate, absence and presence of S9-mix): not mutagenic; bacterial background lawn ([6]; any of the concentrations tested (3 to 5000 μg/plate)): not reduced; precipitation on the plates ([6]; top dose of 5000 μg/plate, dissolved in DMSO): did not precipitate; duration of attenuated throat discomfort [7, 8]: about four; time to relief after administration [7, 8]: five; cough and scratchy throat ([7]; ODT as needed for ten days): disappeared |
| CCCCOC(=O)CNC(=O)[C@@H]1C[C@H](C)CC[C@H]1C(C)C [Gly-O-nBu, [((1R,2S,5R)-2-isopropyl-5-methyl-cyclohexanecarbonyl)-amino]-acetic acid n-butyl ester] | 35 |  |  | 0 |  | 38 |  |
| CCCOC(=O)CNC(=O)[C@@H]1C[C@H](C)CC[C@H]1C(C)C [Gly-O-nPr, [((1R,2S,5R)-2-isopropyl-5-methyl-cyclohexanecarbonyl)-amino]-acetic acid n-propyl ester] | 54 | Gly-O-iPr>>Gly-O-nPr>Gly-O-Et |  | 0 | not effective | 42 |  |
